Test results: patent publication US20100280231A1, “WHITENING AGENT COMPRISING EQUOL OR ITS SACCHARIDE DERIVATIVE AS AN EFFECTIVE INGREDIENT” (priority 2007, published 2010)
Where two headings read alike, the source gives them in different places.

Tests used:
[1] = system: skin of the upper arm of volunteers; experiment: Safety test, application on the upper arm of volunteers; conditions: 3 parts by weight (equol equivalent) in ethanol/glycerol/water base, 1-cm square, three times a day for three days, five volunteers each, observed for the next week
Mouse B16 melanoma cells = experiment: Test of whitening effect in vitro (melanin production); format: cell-based; set-up: key to Determination of whitening effect: −: Not changed; ±: Slightly whitened; +: A little whitened; ++: Significantly whitened; +++: Completely whitened; conditions: for Determination of whitening effect: B16 melanoma cells, 4 days; for Melanin Production: negative control 73.9; for EC50: Mus musculus, B16, concentration giving half of the melanin production of the negative control, read-out: ED50 (the source's name)
Protocol: Three equol glycoside preparation prepared in Experiment 1, i.e. the solution containing reaction products (a solution containing 4′-O-α-D-glucopyranosyl-S-equol and 7-O-α-D-glucopyranosyl-S-equol, hereinafter, described as “equol glycoside containing solution”), 4′-O-α-D-glucopyranosyl-S-equol and 7-O-α-D-glucopyranosyl-S-equol, and the equol used in Experiment 1 were used as test samples, and the following experiment was carried out to determine their whitening effect. Mouse B16 melanoma cells suspended in RPMI-1640 medium containing 10 v/v % fetal calf serum (hereinafter, abbreviated as “FCS”) were inoculated into “6-MULTIWELL MICROPLATE” (6-well microplate commercialized by Becton, Dickinson and Company) to give a cell concentration of 4×10^4 cells/well. After the cells were adhered to the bottom of well, the culture supernatant was removed. The cells were admixed with equol or any one of the three equol glycoside samples, diluted with the same medium to give the concentration described in Table 2, and then cultured at 37° C. in an atmosphere of 5 v/v % CO2 for four days. The cells were collected after admixed with trypsin-EDTA, washed once with Dulbecco's PBS (−) (hereinafter, abbreviated as “D-PBS”), and then dissolved in 1N-sodium hydroxide. A part of the solution was used to determine the amount of protein. The above alkaline solution was boiled for 30 minutes and the amount of melanin was measured. […] Also ED50 (the concentration of the test sample giving half of the melanin production in the cell cultured with negative control) is shown in Table 2. The medium alone was used as negative control, and koji acid, which has been used as a whitening substance for external dermatological composition, was used as positive control at the concentration described in Table 2 (0.5 to 2 mM), to evaluate the whitening effect. The evaluation of whitening effect and measurement of melanin, protein and equol glycosides were carried out as follows.
The melanin production was determined by comparing the absorbance at 450 nm (reference 650 nm) of each alkaline solution to that of melanin standard (Sigma Corporation), measured with “MICROPLATE READER M-Vmax” (commercialized by Wako Pure Chemical Industries Co., Ltd.).
The amount of protein was determined by Bradford method using human serum album bumin as standard.
The concentration of equol glycoside in the powdery product used in the following experiments were determined by the same method as used in Experiment 1, based on the molar absorption coefficient of equol measured at UV 280 nm.

[2] = system: skin of the upper arm of volunteers; conditions: human, in vivo
[3] = system: mouse 3T3-L1 cell line (precursor lipocyte); experiment: Effect on differentiation of precursor lipocyte into lipocyte (oil red O staining); format: cell-based; conditions: for Concentration enhancing differentiation of precursor lipocyte into mature lipocyte: Table 3, compared to control; for Enhancing effect on differentiation into lipocyte: with 10 μg/ml insulin, 12 days, relative absorbance, control = 100%, * p < 0.05 vs control
Protocol: It is known that mouse 3T3-L1 cell line (precursor lipocyte) differentiates into mature lipocyte when cultured in the presence of a differentiation inducer, and accumulates oil droplet in the cell according to the progress of differentiation. The mouse 3T3-Li cells were suspended in a medium, which is Dulbecco's MEM medium (hereinafter, abbreviated as “D-MEM”) supplemented with FCS (final concentration of 10 v/v %) and glucose (final concentration of 3 mg/ml), (hereinafter, described as “regular medium”) to give a cell concentration of 2.5×10^4 cells/well, and inoculated to “CELL CULTURE 24-MULTIWELL MICROPLATE” (24-well microplate coated with collagen type 1, commercialized by Becton, Dickinson and Company) by 1 ml/well. After the cells were cultured at 37° C. in an atmosphere of 5 v/v % CO2 for two days, the supernatant was removed and the remaining cells were admixed with a medium containing 10 μg/ml insulin and equol or equol glycosides dissolved in 50% ethanol, to give a concentration in Table 3, by 1 ml/well and then cultured for 12 days while replacing the medium every two or three days. After each well of the plate was washed with “D-PBS” three times, D-PBS containing 10% formalin was added by 0.2 ml/well, and then the cell was placed at 4° C. for one hour for fixation. After the fixing fluid was removed, a staining fluid of oilred O was added by 0.15 ml/well, and allowed to react at ambient temperature for 15 minutes to stain the lipid droplet in 3T3-L1 cell. After the staining fluid was removed, each well was washed with distilled water three times, and then the plate was dried. After the pigment in each well was dissolved in 0.4 ml of isopropanol, the absorbance of the resulting solution was measured at 490. The progress of the cell differentiation was expressed with relative absorbance to the absrobance of the cell cultured with control regarded as 100%.

[4] = system: mouse 3T3-L1 cells differentiated into mature cells; experiment: Test for lipid hydrolysis (glycerol release from mature lipocytes); format: cell-based; conditions: for Enhancing effect on lipid hydrolysis: glycerol per cell protein, 6 hours, control 274, * p < 0.05 vs control
Protocol: After the culture supernatant of mouse 3T3-L1 cells cultured under the same condition described above was removed, a regular medium containing 5 μg/ml insulin, 0.25 μM dexamethasone and 0.5 mM 3-isobutyl-1-methylxanthin was added by 1 ml/well, and then the cells were cultured for two days to differentiate into mature cells. After the supernatant was removed, the cells were washed with D-PBS three times and cultured with regular medium for 12 days while replacing the medium every two or three days by 1 ml/well. After the supernatant was removed and the cells were washed with D-PBS two times, a solution containing equol or equol glycosides diluted with D-MEM containing 1% bovine serum albumin to give the concentration described in Table 4 was added by 0.25 ml/well, and then the cell was cultured for 6 hours. After the supernatant was collected, the amount of glycerol was measured to determine the amount of the degraded lipid. After the supernatant was removed and the cells were washed with D-PBS three times, D-PBS containing 0.25% Triton X-100 was added to collect the cells, and then the cells were sonicated to give a cell-dissolving solution. The amount of protein of the sonicated cells was measured by Bradford method as in Experiment 3, and the amount of glycerol per cell protein representing degree of lipid degradation was shown in Table 3. The amount of glycerol was measured with “GLYCEROL REGENT A” (glycerol measurement kit commercialized by Zen-Bio, Inc.).

estrogen-receptor = conditions: Kenneth D. R. et al., Am. J. Clin. Nutr. 81, 1072-1079 (2005); cited from earlier work

| Compound | Determination of whitening effect (Mouse B16 melanoma cells; sample concentration 5 μM) | Determination of whitening effect (Mouse B16 melanoma cells; sample concentration 10 μM) | Determination of whitening effect (Mouse B16 melanoma cells; sample concentration 20 μM) | Melanin Production (Mouse B16 melanoma cells; sample concentration 5 μM) [μg/mg-cell protein] | Melanin Production (Mouse B16 melanoma cells; sample concentration 10 μM) [μg/mg-cell protein] | Melanin Production (Mouse B16 melanoma cells; sample concentration 20 μM) [μg/mg-cell protein] | Concentration enhancing differentiation of precursor lipocyte into mature lipocyte [3] [µM] | Enhancing effect on differentiation into lipocyte ([3]; sample 5 μM) | Enhancing effect on differentiation into lipocyte ([3]; sample 20 μM) | Enhancing effect on lipid hydrolysis ([4]; sample 5 μM) | Enhancing effect on lipid hydrolysis ([4]; sample 20 μM) | Enhancing effect on lipid hydrolysis ([4]; sample 80 μM) | also measured |
| --- | --- | --- | --- | --- | --- | --- | --- | --- | --- | --- | --- | --- | --- |
| OC[C@H]1O[C@H](Oc2ccc([C@@H]3COc4cc(O)ccc4C3)cc2)[C@H](O)[C@@H](O)[C@@H]1O [4′-O-α-D-glucopyranosyl-R-equol] |  |  |  |  |  |  |  |  |  |  |  |  | Condition of the skin after application [1]: no rough dry skin or rubor |
| O=c1cc(CO)occ1O [Koji cid, koji acid, reference compound] |  |  |  |  |  |  |  |  |  |  |  |  | Determination of whitening effect (Mouse B16 melanoma cells; sample concentration 1 mM): +; Determination of whitening effect (Mouse B16 melanoma cells; sample concentration 2 mM): ++; Determination of whitening effect (Mouse B16 melanoma cells; sample concentration 4 mM): +++; Melanin Production (Mouse B16 melanoma cells; sample concentration 1 mM): 57.1 μg/mg-cell protein; Melanin Production (Mouse B16 melanoma cells; sample concentration 2 mM): 47.5 μg/mg-cell protein; Melanin Production (Mouse B16 melanoma cells; sample concentration 4 mM): 37.7 μg/mg-cell protein |
| OCC1O[C@H](Oc2ccc3c(c2)OC[C@H](c2ccc(O)cc2)C3)[C@@H](O)C(O)[C@@H]1O (stereo partly drawn) [7-O-α-D-glucopyranosyl-S-equol] | + | + | ++ | 54.8 | 48.4 | 43.0 | 80 | 96% | 101% | 265 μg/mg-cell protein | 312* μg/mg-cell protein | 374* μg/mg-cell protein | EC50 (Mouse B16 melanoma cells): 27.3 µM; Condition of the skin after application [2]: no rough dry skin or rubor; Enhancing effect on differentiation into lipocyte ([3]; sample 80 μM): 253* % |
| Oc1ccc(C2COc3cc(O)ccc3C2)cc1 (centres unmarked) [Equol, equol] | ++ | +++ | +++ | 36.8 | 30.7 | 29.8 | ≥ 5 | 194* % | 430* % | 392* μg/mg-cell protein | 679* μg/mg-cell protein | 1119* μg/mg-cell protein | Whitening efficiency compared to positive control (Mouse B16 melanoma cells; equol 5 μM to 20 μM, Table 2): approximately the same as that of 1 mM koji acid; Concentration enhancing degradation of triglyceride accumulated in lipocyte ([4]; Table 3, compared to control): ≥ 5 µM |
| OCC1O[C@H](Oc2ccc([C@H]3COc4cc(O)ccc4C3)cc2)[C@@H](O)C(O)[C@@H]1O (stereo partly drawn) [4′-O-α-D-glucopyranosyl-S-equol] | + | + | ++ | 57.1 | 55.0 | 48.2 | 80 | 92% | 107% | 272 μg/mg-cell protein | 320* μg/mg-cell protein | 401* μg/mg-cell protein | EC50 (Mouse B16 melanoma cells): 38.8 µM; Condition of the skin after application [2]: no rough dry skin or rubor; Enhancing effect on differentiation into lipocyte ([3]; sample 80 μM): 217* % |
| S-equol |  |  |  |  |  |  |  |  |  |  |  |  | Estrogenic activity according to the affinity to the receptor (estrogen-receptor): higher than that of R-equol |
| OC[C@H]1O[C@H](Oc2ccc3c(c2)OC[C@@H](c2ccc(O)cc2)C3)[C@H](O)[C@@H](O)[C@@H]1O [7-O-α-D-glucopyranosyl-R-equol] |  |  |  |  |  |  |  |  |  |  |  |  | Condition of the skin after application [1]: no rough dry skin or rubor |
